The record followed here is US20230339886A1 (University of Florida Research Foundation, Incorporated, priority 2020, published 2023).

One assay concerns the target T1, REV-ERBβ (Homo sapiens, UniProt Q14995).
T1 construct: 6×Histag-REV-ERBα LBD (human; residues 381-579); made in house; host or cells: Escherichia coli
T1 sequence (Q14995 381-579): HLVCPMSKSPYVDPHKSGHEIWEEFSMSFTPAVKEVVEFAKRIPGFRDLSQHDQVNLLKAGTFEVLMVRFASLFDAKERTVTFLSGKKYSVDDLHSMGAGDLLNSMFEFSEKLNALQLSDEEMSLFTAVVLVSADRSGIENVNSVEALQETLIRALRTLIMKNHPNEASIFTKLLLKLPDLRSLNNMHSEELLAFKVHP
Description: TR-FRET corepressor interaction assay (REV-ERBβ, FITC-SMRT peptide). Format: biochemical. Conditions: Table 2, read-out: REVERBβ agonism (EC50 class, FRET assay). How it is done:
TR-FRET corepressor interaction assay. The time-resolved fluorescence resonance energy transfer (TR-FRET) assay was performed in black low-volume 384-well plates (Greiner). […] Ligand stocks were prepared via serial dilution in DMSO, added to wells in triplicate, and plates were incubated at 4° C. for 2 h and read using a BioTek Synergy Neo multimode plate reader. The Tb donor was excited at 340 nm; its fluorescence emission was monitored at 495 nm, and the acceptor FITC emission was measured at 520 nm; and the TR-FRET ratio was calculated as the signal at 520 nm divided by the signal at 495 nm. Data were plotted using GraphPad Prism as TR-FRET ratio vs. ligand concentration and fit to sigmoidal dose response curve equation.
Exemplary compounds of the present disclosure were assayed as described above to assess agonism of REV-ERBα and REV-ERBβ.
For orientation: Time-resolved FRET reads energy transfer from a long-lived donor to a nearby acceptor.

The target in assay [1] is T2, REV-ERBα LBD (human; residues 281-614 Δ324-422) (Homo sapiens, UniProt P20393, DEL324-422).
T2 construct: 6×Histag-REV-ERBα LBD (human; residues 281-614 Δ324-422); made in house; host or cells: Escherichia coli
T2 sequence (P20393 with tags, fused parts or gaps DEL324-422): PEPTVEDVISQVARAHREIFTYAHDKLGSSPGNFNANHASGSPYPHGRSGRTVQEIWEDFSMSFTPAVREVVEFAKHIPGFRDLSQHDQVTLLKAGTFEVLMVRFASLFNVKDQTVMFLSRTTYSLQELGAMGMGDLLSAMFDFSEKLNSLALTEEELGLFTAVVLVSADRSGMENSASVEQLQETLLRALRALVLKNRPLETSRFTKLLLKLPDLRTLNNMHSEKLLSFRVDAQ
T2 sequence (Q9Y618 2335-2356 partner limits assumed): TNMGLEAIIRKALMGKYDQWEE
Description: TR-FRET corepressor interaction assay (REV-ERBα LBD, FITC-SMRT peptide). Format: biochemical. The settings on record: Table 2, read-out: REVERBα agonism (EC50 class, FRET assay). An outline of the steps:
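Compound serial dilutions (in DMSO, triplicate) incubated 2 h at 4 °C; Tb donor excited at 340 nm, emission read at 495 nm and FITC acceptor at 520 nm. TR-FRET ratio (520/495 nm) plotted against ligand concentration and fitted to a sigmoidal dose-response curve.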

Regarding `CC(C)(C)Cn1cc(CNS(=O)(=O)C2CC2)c2cc(F)c(-c3ccncc3Cl)cc21` [Compound 279], the EC50 (as a rule, the midpoint of the concentration-response curve) on REV-ERBβ was above 3000 nM; in assay [1], below 500 nM.
With `CC(C)Cn1cc(CCNS(=O)(=O)N(C)C)c2ccccc21` [Compound 68, dimethyl({2-[1-(2-methylpropyl)-1H-indol-3-yl]ethyl}sulfamoyl)amine], the EC50 is above 3000 nM on REV-ERBβ and 500 to 3000 nM in assay [1].
As to `CC(C)(C)Cc1cn(CCNS(=O)(=O)C2CC2)c2ccc(-c3cccc(F)c3C(F)(F)F)cc12` [Example 227, N-(2-(5-(3-fluoro-2-(trifluoromethyl)phenyl)-3-neopentyl-1H-indol-1-yl)ethyl) cyclopropanesulfonamide], the values for the EC50 (on REV-ERBβ; in assay [1]) were 500 to 3000 nM and below 500 nM, respectively.
Taken in the same sequence, the figures for `CN(C)S(=O)(=O)N[C@@H](c1cn(CC(C)(C)C)c2cc(C3CC3)c(F)cc12)C(F)(F)F` [Example 328, {[(1S)-1-[6-cyclopropyl-1-(2,2-dimethylpropyl)-5-fluoro-1H-indol-3-yl]-2,2,2-trifluoroethyl]sulfamoyl}dimethylamine] were above 3000 nM and below 500 nM.
Take `CC(C)Cn1cc(CCNS(=O)(=O)N(C)C)c2ccc(-c3ccnc(N4CCOCC4)c3)cc21` [Compound 36, dimethyl({2-[1-(2-methylpropyl)-6-[2-(morpholin-4-yl)pyridin-4-yl]-1H-indol-3-yl]ethyl}sulfamoyl)amine]: the EC50 (on REV-ERBβ; in assay [1]) was above 3000 nM throughout.
As for `CC(C)(C)Cc1cn(CCNS(=O)(=O)C2CC2)c2ccc(-c3ccc(F)cc3C(F)(F)F)cc12` [Example 301, N-(2-(5-(4-fluoro-2-(trifluoromethyl)phenyl)-3-neopentyl-1H-indol-1-yl)ethyl) cyclopropanesulfonamide], the results for the EC50 (at REV-ERBβ; in assay [1]) were 500 to 3000 nM and below 500 nM, respectively.
For `CC(C)Cn1cc([C@H](NS(=O)(=O)C2CC2)C(F)(F)F)c2cc(F)c(-c3ccccc3C(F)(F)F)cc21` [Example 313, (S)—N-(2,2,2-trifluoro-1-(5-fluoro-1-isobutyl-6-(2-(trifluoromethyl)phenyl)-1H-indol-3-yl)ethyl)cyclopropanesulfonamide] the same measures were above 3000 nM and below 500 nM.
Turning to `CC(C)(C)Cn1cc([C@H](NS(=O)(=O)C2CC2)C(F)(F)F)c2cc(F)c(Br)cc21` [Example 342, (S)—N-(1-(6-bromo-5-fluoro-1-neopentyl-1H-indol-3-yl)-2,2,2-trifluoroethyl)cyclopropanesulfonamide], the EC50 at REV-ERBβ is above 3000 nM; in assay [1] it was below 500 nM.
For `CC(C)(C)Cc1cn(CCNS(=O)(=O)C2CC2)c2ccc(-c3ccc(C(F)(F)F)cc3C(F)(F)F)cc12` [Example 299, N-(2-(5-(2,4-bis(trifluoromethyl)phenyl)-3-neopentyl-1H-indol-1-yl)ethyl)cyclo-propanesulfonamide] the same measures were 500 to 3000 nM and below 500 nM.
For `CC(C)Cn1cc(CCNS(=O)(=O)N(C)C)c2cccc(Br)c21` [Example 137, ({2-[7-bromo-1-(2-methylpropyl)-1H-indol-3-yl]ethyl}sulfamoyl)dimethylamine] the same measures were above 3000 nM and 500 to 3000 nM.
Taken in the same sequence, the figures for `Cc1c(-c2ccncc2)ccc2c(CCNS(=O)(=O)N(C)C)cn(CC(C)C)c12` [Example 200, dimethyl({2-[7-methyl-1-(2-methylpropyl)-6-(pyridin-4-yl)-1H-indol-3-yl]ethyl}sulfamoyl)amine] were above 3000 nM and below 500 nM.
`CC(C)Cn1cc(CCNS(=O)(=O)C2CCCC2)c2ccc(-c3ccncc3)cc21` [Compound 11]: the results for the EC50 (at REV-ERBβ; in assay [1]) were above 3000 nM and below 500 nM, respectively.
Taken in the same sequence, the figures for `CC(C)Cn1cc(CCNS(=O)(=O)N(C)C)c2ccc(-c3cn[nH]c3)cc21` [Compound 35, dimethyl({2-[1-(2-methylpropyl)-6-(1H-pyrazol-4-yl)-1H-indol-3-yl]ethyl}sulfamoyl)amine] were above 3000 nM and below 500 nM.
Taken in the same sequence, the figures for `Cc1ccc2c([C@H](NS(=O)(=O)C3CC3)C(F)(F)F)cn(CC(C)C)c2c1` [Example 309, (S)—N-(2,2,2-trifluoro-1-(1-isobutyl-6-methyl-1H-indol-3-yl)ethyl)cyclopropanesulfonamide] were below 500 nM and below 500 nM.
With `CCC(C)n1cc(CCNS(=O)(=O)N(C)C)c2ccc(-c3ccncc3)cc21` (stereo not drawn) [Compound 230], the EC50 was 500 to 3000 nM on REV-ERBβ and below 500 nM in assay [1].
With `CC(C)Cn1cc(CCNS(=O)(=O)N(C)C)c2ccc(-c3cccc4cnccc34)cc21` [Compound 38, ({2-[6-(isoquinolin-5-yl)-1-(2-methylpropyl)-1H-indol-3-yl]ethyl}sulfamoyl)dimethylamine], the EC50 (on REV-ERBβ; in assay [1]) was above 3000 nM each time.
With `CC(C)(C)Cc1cn(CCNS(=O)(=O)C2CC2)c2ccc(-c3ccc(C(F)(F)F)cc3Cl)cc12` [Example 300, N-(2-(5-(2-chloro-4-(trifluoromethyl)phenyl)-3-neopentyl-1H-indol-1-yl)ethyl) cyclopropanesulfonamide], the EC50 was 500 to 3000 nM at REV-ERBβ and below 500 nM in assay [1].
Turning to `CC(C)c1ccc2c([C@H](NS(=O)(=O)N(C)C)C(F)(F)F)cn(CC(C)(C)C)c2c1` [Example 340, {[(1S)-1-[1-(2,2-dimethylpropyl)-6-(propan-2-yl)-1H-indol-3-yl]-2,2,2-trifluoroethyl]sulfamoyl}dimethylamine], the EC50 at REV-ERBβ was 500 to 3000 nM; in assay [1], below 500 nM.
Take `CC(C)(C)Cc1cn(CCNS(=O)(=O)C2CC2)c2ccc(Br)cc12` [Example 298, N-(2-(5-bromo-3-neopentyl-1H-indol-1-yl)ethyl)cyclopropanesulfonamide]: the figures for the EC50 (on REV-ERBβ; in assay [1]) were above 3000 nM and 500 to 3000 nM, respectively.
Taken in the same sequence, the figures for `CC(C)Cn1cc(CCNS(=O)(=O)N(C)C)c2ccc(-c3cc[nH]c(=O)c3)cc21` [Compound 18] were above 3000 nM and above 3000 nM.
For `CC(C)(C)Cn1cc([C@H](NS(=O)(=O)C2CC2)C(F)(F)F)c2cc(F)c(-c3ccccc3Cl)cc21` [Example 331, (S)—N-(1-(6-(2-chlorophenyl)-5-fluoro-1-neopentyl-1H-indol-3-yl)-2,2,2-trifluoroethyl)cyclopropanesulfonamide] the same measures were 500 to 3000 nM and below 500 nM.
For `CC(C)Cn1cc(CCNS(=O)(=O)c2cccnc2)c2ccc(-c3ccncc3)cc21` [Compound 15] the same measures were above 3000 nM and 500 to 3000 nM.
Take `O=S(=O)(NCc1cn(CC2(C(F)(F)F)CC2)c2cc(-c3ccncc3Cl)c(F)cc12)C1CC1` [Compound 286]: the half-maximal effective concentration (EC50) on REV-ERBβ was above 3000 nM; in assay [1] it was below 500 nM.
For `CC(C)(C)Cc1cn(CCNS(=O)(=O)C2CC2)c2ccc(-c3c(Cl)cccc3Cl)cc12` [Example 214, N-(2-(5-(2,6-dichlorophenyl)-3-neopentyl-1H-indol-1-yl)ethyl)cyclopropane-sulfonamide] the same measures were 500 to 3000 nM and below 500 nM.
